Data published in patent US7304079B2, “Substituted indolealkanoic acids” (The Institute for Pharmaceutical Discovery, LLC, priority 1998, dated 2007).

Biological target: T1, human aldehyde reductase (hALR1) (Homo sapiens, UniProt P14550)
T1 sequence (P14550 1-325): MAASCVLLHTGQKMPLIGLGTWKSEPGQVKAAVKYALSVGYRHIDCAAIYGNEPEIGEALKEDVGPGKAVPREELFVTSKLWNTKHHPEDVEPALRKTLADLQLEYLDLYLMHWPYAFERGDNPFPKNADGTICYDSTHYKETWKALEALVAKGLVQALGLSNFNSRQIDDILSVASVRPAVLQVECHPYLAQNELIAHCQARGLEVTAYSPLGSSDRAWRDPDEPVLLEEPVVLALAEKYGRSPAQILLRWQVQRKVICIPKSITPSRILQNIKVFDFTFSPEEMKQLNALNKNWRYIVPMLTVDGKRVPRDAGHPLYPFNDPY
Assay: human aldehyde reductase (hALR1) inhibition
Type: biochemical
Protocol: In a second assay, a number of the same compounds were tested for their ability to inhibit aldehyde reductase (hALR1), a structurally related enzyme.

With `O=C(O)Cn1cc(Cc2nc3c(F)c(F)cc(F)c3s2)c2ccc(N3CCOCC3)cc21` [Example 18, 6-morpholino-3-(4,5,7-trifluorobenzothiazol-2-yl)methyl-indole-N-acetic acid] the IC50 was > 0.1 µM.
